Measurements taken from patent publication US20150246902A1, “SUBSTITUED BENZOFURAN COMPOUNDS AND METHODS OF USE THEREOF FOR THE TREATMENT OF VIRAL DISEASES” (priority 2011, published 2015).

How the values were obtained:
[1] = system: HCV replicon genotype 1a; assay: microbe, parasite or virus in culture; format: cell-based; conditions: Hepatitis C virus, 96 h, HCV genotype 1a replicon cells, 96 hours incubation, NS3/4A ELISA readout
[2] = system: HCV replicon genotype 1b; assay: microbe, parasite or virus in culture; format: cell-based; conditions: Hepatitis C virus, 96 h, HCV genotype 1b replicon cells, 96 hours incubation, NS3/4A ELISA readout

Compound | IC50 [1] [nM] | IC50 [2] [nM]
CNC(=O)c1c(-c2ccc(F)cc2)oc2cc(N(C)S(C)(=O)=O)c(-c3ccc4onc(-c5ccccc5)c4c3)cc12 [Compound 83, 2-(4-fluorophenyl)-N-methyl-6-(N-methylmethylsulfonamido)-5-(3-phenylbenzo[d]isoxazol-5-yl)benzofuran-3-carboxamide] | 23.6 | 14.7
CNC(=O)c1c(-c2ccc(F)cc2)oc2cc(N(C)S(C)(=O)=O)c(-c3ccc4ccn(CCO)c4c3)cc12 [Compound 69] | 147 | 17.4
CNC(=O)c1c(-c2ccc(F)cc2)oc2cc(N(C)S(C)(=O)=O)c(-c3cc(F)c4nc(C)n(-c5ccc(F)c(C#N)c5)c4c3)cc12 [Compound 32] | 5.3 | 3.1
CNC(=O)c1c(-c2ccc(F)cc2)oc2cc(N(C)S(C)(=O)=O)c(-c3ccc4[nH]c(-c5ccccc5)cc4c3)cc12 [Compound 103, 2-(4-fluorophenyl)-N-methyl-6-(N-methylmethylsulfonamido)-5-(2-phenyl-1H-indol-5-yl)benzofuran-3-carboxamide] | 1100 | 101
CNC(=O)c1c(-c2ccc(F)cc2)oc2cc(N(C)S(C)(=O)=O)c(-c3ccc4nc(C)n(-c5ccc(F)cc5)c4c3)cc12 [Compound 19] | 12.8 | 2.2
CNC(=O)c1c(-c2ccc(F)cc2)oc2cc(N(C)S(C)(=O)=O)c(-c3ccc4c(ccn4-c4cccnc4)c3)cc12 [Compound 57] | 13.9 | 3
CNC(=O)c1c(-c2ccc(F)cc2)oc2cc(N(C)S(C)(=O)=O)c(-c3ccc4cnn(-c5ccc(C#N)cc5)c4c3)cc12 [Compound 108] | 27.6 | 12.3
CNC(=O)c1c(-c2ccc(F)cc2)oc2cc(N(C)S(C)(=O)=O)c(-c3ccc4ncc(-c5ccc(C(F)(F)F)cc5)n4n3)cc12 [Compound 94, 2-(4-fluorophenyl)-N-methyl-6-(N-methylmethylsulfonamido)-5-(3-(4-(trifluoromethyl)phenyl)imidazo[1,2-b]pyridazin-6-yl)benzofuran-3-carboxamide] | 75.7 | 12.3
CNC(=O)c1c(-c2ccc(F)cc2)oc2cc(N(C)S(C)(=O)=O)c(-c3ccc4ncn(-c5cccc(C(F)(F)F)c5)c4c3)cc12 [Compound 8] | 27.7 | 3.9
CNC(=O)c1c(-c2ccc(F)cc2)oc2cc(N(C)S(C)(=O)=O)c(-c3ccc4ncn(-c5cc(F)cc(F)c5)c4n3)cc12 [Compound 43] | 158 | 17.3
CNC(=O)c1c(-c2ccc(F)cc2)oc2cc(N(C)S(C)(=O)=O)c(-c3ccc4ncn(-c5ccc(OC)cc5)c4c3)cc12 [Compound 1, 2-(4-fluorophenyl)-5-(1-(4-methoxyphenyl)-1H-benzo[d]imidazol-6-yl)-N-methyl-6-(N-methylmethylsulfonamido)benzofuran-3-carboxamide] | 16.5 | 4.6
CNC(=O)c1c(-c2ccc(F)cc2)oc2cc(N(C)S(C)(=O)=O)c(-c3ccc4ccn(-c5cccnc5)c4c3)cc12 [Compound 52] | 42.9 | 7.1
CNC(=O)c1c(-c2ccc(F)cc2)oc2cc(N(C)S(C)(=O)=O)c(-c3ccc4ncn(C5CCN(C(=O)OC(C)(C)C)CC5)c4c3)cc12 [Compound 23] | 36.7 | 8.2
CNC(=O)c1c(-c2ccc(F)cc2)oc2cc(N(C)S(C)(=O)=O)c(-c3ccc4[nH]nc(-c5ccc(Cl)cc5)c4c3)cc12 [Compound 76] | 6.8 | 5.8
CNC(=O)c1c(-c2ccc(F)cc2)oc2cc(N(C)S(C)(=O)=O)c(-c3ccc4c(ccn4C(=O)OC(C)(C)C)c3)cc12 [Compound 104, tert-butyl 5-(2-(4-fluorophenyl)-3-(methylcarbamoyl)-6-(N-methylmethylsulfonamido)benzofuran-5-yl)-1H-indole-1-carboxylate] | 179 | 18.9
CNC(=O)c1c(-c2ccc(F)cc2)oc2cc(N(C)S(C)(=O)=O)c(-c3cc(F)c4ncn(-c5cc(F)cc(F)c5)c4c3)cc12 [Compound 30] | 6.3 | 2.8
CNC(=O)c1c(-c2ccc(F)cc2)oc2cc(N(C)S(C)(=O)=O)c(-c3ccc4c(ccn4-c4cccc(F)c4)c3)cc12 [Compound 55] | 152 | 23.8
CNC(=O)c1c(-c2ccc(F)cc2)oc2cc(N(C)S(C)(=O)=O)c(-c3ccc4ncn(-c5ccc(F)cc5)c4c3)cc12 [Compound 15] | 5.5 | 1.2
CNC(=O)c1c(-c2ccc(F)cc2)oc2cc(N(C)S(C)(=O)=O)c(-c3ccc4ncn(-c5ccc(C(F)(F)F)cc5)c4c3)cc12 [Compound 7] | 2.6 | 2.2
CNC(=O)c1c(-c2ccc(F)cc2)oc2cc(N(C)S(C)(=O)=O)c(-c3ccc4ncn(C5CCOCC5)c4c3)cc12 [Compound 26] | 64.7 | 12
CNC(=O)c1c(-c2ccc(F)cc2)oc2cc(N(C)S(C)(=O)=O)c(-c3ccc4nc(-c5ccccc5)cn4c3)cc12 [Compound 88, 2-(4-fluorophenyl)-N-methyl-6-(N-methylmethylsulfonamido)-5-(2-phenylimidazo[1,2-a]pyridin-6-yl)benzofuran-3-carboxamide] | 50.1 | 7
CNC(=O)c1c(-c2ccc(F)cc2)oc2cc(N(C)S(C)(=O)=O)c(-c3ccc4c(ccn4-c4ccncc4)c3)cc12 [Compound 58] | 7.2 | 2.6
CNC(=O)c1c(-c2ccc(F)cc2)oc2cc(N(C)S(C)(=O)=O)c(-c3ccc4ncn(-c5cncc(F)c5)c4c3)cc12 [Compound 36] | 36.2 | 6.5
CNC(=O)c1c(-c2ccc(F)cc2)oc2cc(N3CCCC3=O)c(-c3ccc4ncn(-c5ccccc5)c4c3)cc12 [Compound 77, 2-(4-fluorophenyl)-N-methyl-6-(2-oxopyrrolidin-1-yl)-5-(1-phenyl-1H-benzo[d]imidazol-6-yl)benzofuran-3-carboxamide] | 235 | 32.6
CNC(=O)c1c(-c2ccc(F)cc2)oc2cc(N(C)S(C)(=O)=O)c(-c3cc4c(cn3)ncn4-c3ccc(F)cc3)cc12 [Compound 46] | 74.5 | 10.7
